The record followed here is patent US7829723B2, “Polymorphic forms of (S)-1-cyanobutan-2-yl (S)-1-(3-3-(3-methoxy-4-(oxazol-5-yl)phenyl)uriedo)phenyl)ethylcarbamate” (Vertex Pharmaceuticals Incorporated, priority 2005, dated 2010).

The nature of data set [1]: Solubility of Compound 1 at room temperature in various solvents and solvent mixtures. It counts as physicochemical.
Data set [2] can be described thus: Solubility of Compound 1 at elevated temperatures in various solvents. It counts as physicochemical. To be noted: organic solvent or mixture.

In brackets after ≈: the same amount, converted by molar mass.

For the compound `CC[C@@H](CC#N)OC(=O)N[C@@H](C)c1cccc(NC(=O)Nc2ccc(-c3cnco3)c(OC)c2)c1` [Compound 1, (S)-1-cyanobutan-2-yl (S)-1-(3-(3-(3-methoxy-4-(oxazol-5-yl)phenyl)ureido)phenyl)ethylcarbamate], the solubility (in general, the dissolved amount per volume that the medium holds) in data set [1] (aqueous with cosolvent or surfactant or cyclodextrin, solvent Acetone:H2O 20:80) is below 8.9 mg/mL; in data set [1] (organic solvent or mixture, solvent 2-Butanone (MEK)) it was 10.5 mg/mL (≈ 22 mM); in data set [1] (organic solvent or mixture, solvent Acetone) it was 11 mg/mL (≈ 23 mM); in data set [1] (organic solvent or mixture, solvent Acetonitrile), 1.6 mg/mL (≈ 3.35 mM); in data set [1] (organic solvent or mixture, solvent EtOH), 1.6 mg/mL (≈ 3.35 mM); in data set [1] (organic solvent or mixture, solvent THF) it was 35 mg/mL (≈ 73.3 mM). Also, the solubility in data set [2] (solvent Acetone, 40° C.) turned out to be 61 mg/mL (≈ 128 mM); in data set [2] (solvent Acetone, Boiling point (56° C.)), 67 mg/mL (≈ 140 mM); in data set [2] (solvent MeOH, 40° C.), 33 mg/mL (≈ 69.1 mM); in data set [2] (solvent MeOH, 50° C.), 36 mg/mL (≈ 75.4 mM); in data set [2] (solvent MeOH, Boiling point (65° C.)) it was 92 mg/mL (≈ 193 mM); in data set [2] (solvent THF, 40° C.) it was 75 mg/mL (≈ 157 mM). The solubility was 115 mg/mL (≈ 241 mM) in data set [2] (solvent THF, Boiling point (65° C.)); below 2.3 mg/mL in data set [2] (solvent Toluene, 50° C.); below 10.4 mg/mL in data set [2] (solvent t-Butyl methyl ether (MTBE), 45° C.).
